In article PMC6753110, “Fragment-based discovery of the first nonpeptidyl inhibitor of an S46 family peptidase” (Scientific Reports, 2019):
Where “and” joins values, the source holds several entries; their conditions need not be identical. Identical values can stand only once. Like-named read-outs stand apart in the source and are kept apart here.

What was measured:
PgDPP11 = target: T1, PgDPP11 (Porphyromonas gingivalis, UniProt B2RID1); assay: Inhibition of PgDPP11 enzymatic activity on Leu-Asp-MCA; format: biochemical; details: for Ki: Cheng-Prusoff equation; for remaining activity at 100 µM: inhibitor and synthetic substrate (Leu-Asp-MCA) 100 µM, 100% = activity without inhibitor, read-out: Residual activity (%)
T1 construct: signal peptide of DAP BIII (Pseudoxanthomonas mexicana WO24) (N, cleaved yes); made in house; host or cells: E. coli BL21 Gold(DE3), pET22b
Experimental: We evaluated the inhibitory effects of the 13 commercially available candidate compounds obtained by the in silico screening described above against the enzymatic activity of PgDPP11 on the synthetic substrate Leu-Asp-MCA (4-methylcoumaryl-7-amide) (Fig. 5). Each compound was first tested at a concentration of 100 μM.
Figure 5 Inhibitory effects of 13 candidate compounds obtained by multifilter in silico screening. […] Standard deviations were obtained from three independent experiments.
(§1) Thirteen of fifteen final candidate compounds from the in silico screening described above were purchased from Namiki Shoji Co., Ltd. (Tokyo, Japan). Half-maximal inhibitory concentration (IC50) values were determined by fitting to a sigmoidal curve (4-parameter logistic curve) using ImageJ[60] Competitive inhibition rates were measured using different concentrations of each inhibitor in a reaction buffer containing 50 mM sodium phosphate buffer (pH 8.0), 5 mM EDTA and 0.005% Tween 20 at 298 K for 20 min and using 100 µM Leu-Asp-MCA (4-methylcoumaryl-7-amide) as the substrate for DPP11s. For DPP7s, 100 µM Met-Leu-MCA was used as the substrate. The concentrations of PgDPP11, PgDPP7, SmDPP11 and SmDPP7 were 1, 10, 0.5 and 5 nM, respectively. The inhibitor concentrations were 1000, 500, 250, 125, 62.5, 31.3 and 15.6 µM. Standard deviations were calculated from three independent experiments. Fluorescence intensity was measured with excitation at 355 nm and emission at 460 nm using an Infinite 200 PRO microplate reader. Inhibition constants (Ki) were calculated using the Cheng-Prusoff equation[61].

ClC-5 = system: ClC-5; parameters: method as in ref [2] of Table S1; details: Mouse, UniProt Q9WVD4; ref [2] of Table S1; cited from earlier work
BEST-1 = system: BEST-1; parameters: method as in ref [7] of Table S1; details: Mouse, UniProt O88870; ref [7] of Table S1; cited from earlier work
ClC-ec1 = system: ClC-ec1; parameters: method as in PMID 23177200; details: cited from earlier work
PgDPP7 = PgDPP7 (Porphyromonas gingivalis, UniProt Q7MWU6); assay: Inhibition of PgDPP7 enzymatic activity on Met-Leu-MCA; format: biochemical; details: for remaining activity at 100 µM: read-out: Residual activity (%)
Excerpt: (§2) To examine whether SH-5 is a universal inhibitor of S46 peptidases or is specific for PgDPP11, we evaluated the inhibitory effects of SH-5 against PgDPP7. In addition, the inhibitory effects of SH-5 against DPP7 and DPP11 from Stenotrophomonas maltophilia (SmDPP7 and SmDPP11, respectively) were also examined as another reference set of S46 peptidases in the same organism.
as §1

SmDPP7 = SmDPP7 (Stenotrophomonas maltophilia, UniProt B4SLK2); assay: Inhibition of SmDPP7 enzymatic activity on Met-Leu-MCA; format: biochemical; details: for remaining activity at 100 µM: read-out: Residual activity (%)
Excerpt: as §2, §1

P. gingivalis strain W83 = assay: Antibacterial assay, growth of P. gingivalis (OD 600 nm); format: cell-based; details: Porphyromonas gingivalis; for IC50: strain W83, optical density at 600 nm, 48 h anaerobic, read-out: IC50, inhibition of growth of P. gingivalis
Experimental: (§3) The inhibitory effects of SH-5 and the lipophilic analog NPPB against growth of P. gingivalis strain W83 were evaluated by monitoring optical density at 600 nm (Fig. 6, closed squares). […] The maximal percent inhibition values for SH-5 and NPPB were 68% at 1 mM and 99% at 100 μM, respectively.
(§4) Antibacterial assays against P. gingivalis strain W83 and E. coli strain K12 were performed as previously described[62],[63]. P. gingivalis cells were cultured in anaerobic bacterium culture medium (ABCM, Eiken Chemical, Tokyo, Japan) containing 0.001% menadione under anaerobic conditions at 37 °C for 48 h. E. coli cells were grown in M9 medium with 1% glucose with shaking at 37 °C for 24 h. All compounds were dissolved in DMSO at stock concentrations of 100 mM. […] Growth of P. gingivalis and E. coli with compounds was determined as the optical density at 600 nm after incubation.

ClC-7 = system: ClC-7; parameters: method as in ref [4] of Table S1; details: Human, UniProt P51798; ref [4] of Table S1; cited from earlier work
ANO-1 = system: ANO-1; parameters: method as in ref [5] of Table S1; details: Mouse, UniProt Q8BHY3; ref [5] of Table S1; cited from earlier work
ANO-2 = system: ANO-2; parameters: method as in ref [6] of Table S1; details: Mouse, UniProt Q8CFW1; ref [6] of Table S1; cited from earlier work
ClC-2 = system: ClC-2; parameters: method as in ref [1] of Table S1; details: Rat, UniProt P35525; ref [1] of Table S1; cited from earlier work
E. coli strain K12 = assay: Antibacterial assay, growth of E. coli (OD 600 nm); format: cell-based; details: at the concentrations used for the inhibition of P. gingivalis growth
Experimental: as §3, §4

SmDPP11 = SmDPP11 (Stenotrophomonas maltophilia, UniProt B4SNQ8); assay: Inhibition of SmDPP11 enzymatic activity on Leu-Asp-MCA; format: biochemical; details: for Ki / remaining activity at 100 µM: SmDPP11; for Ki: Cheng-Prusoff equation, 100 µM Leu-Asp-MCA; for remaining activity at 100 µM: inhibitor and synthetic substrate (Leu-Asp-MCA) 100 µM, 100% = activity without inhibitor, read-out: Residual activity (%)
Excerpt: as §2, §1

CFTR = system: CFTR; parameters: method as in ref [8] of Table S1; details: Xenopus, UniProt P26363; ref [8] of Table S1; cited from earlier work
ClC-6 = system: ClC-6; parameters: method as in ref [3] of Table S1; details: Human, UniProt P51797; ref [3] of Table S1; cited from earlier work

SmDPP7, sequence (B4SLK2 entry or part of it): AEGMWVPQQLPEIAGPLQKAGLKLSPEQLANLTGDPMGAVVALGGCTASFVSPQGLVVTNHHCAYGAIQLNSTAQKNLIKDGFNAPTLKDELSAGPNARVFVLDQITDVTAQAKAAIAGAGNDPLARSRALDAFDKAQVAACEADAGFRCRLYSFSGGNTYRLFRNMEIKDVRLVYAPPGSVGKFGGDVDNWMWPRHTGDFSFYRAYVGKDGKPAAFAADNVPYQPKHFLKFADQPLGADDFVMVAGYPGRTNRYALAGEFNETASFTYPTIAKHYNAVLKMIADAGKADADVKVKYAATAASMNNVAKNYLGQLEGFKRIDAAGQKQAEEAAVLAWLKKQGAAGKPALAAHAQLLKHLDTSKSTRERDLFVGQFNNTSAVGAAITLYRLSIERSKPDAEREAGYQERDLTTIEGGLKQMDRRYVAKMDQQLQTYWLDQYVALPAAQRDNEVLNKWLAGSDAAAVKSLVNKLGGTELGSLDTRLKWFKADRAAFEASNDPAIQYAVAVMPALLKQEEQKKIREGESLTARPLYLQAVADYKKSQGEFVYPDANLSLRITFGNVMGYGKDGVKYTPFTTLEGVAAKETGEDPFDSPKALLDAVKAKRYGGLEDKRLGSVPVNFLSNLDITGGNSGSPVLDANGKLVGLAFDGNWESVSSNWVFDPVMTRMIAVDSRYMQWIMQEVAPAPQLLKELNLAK
T1 sequence (B2RID1 22-720): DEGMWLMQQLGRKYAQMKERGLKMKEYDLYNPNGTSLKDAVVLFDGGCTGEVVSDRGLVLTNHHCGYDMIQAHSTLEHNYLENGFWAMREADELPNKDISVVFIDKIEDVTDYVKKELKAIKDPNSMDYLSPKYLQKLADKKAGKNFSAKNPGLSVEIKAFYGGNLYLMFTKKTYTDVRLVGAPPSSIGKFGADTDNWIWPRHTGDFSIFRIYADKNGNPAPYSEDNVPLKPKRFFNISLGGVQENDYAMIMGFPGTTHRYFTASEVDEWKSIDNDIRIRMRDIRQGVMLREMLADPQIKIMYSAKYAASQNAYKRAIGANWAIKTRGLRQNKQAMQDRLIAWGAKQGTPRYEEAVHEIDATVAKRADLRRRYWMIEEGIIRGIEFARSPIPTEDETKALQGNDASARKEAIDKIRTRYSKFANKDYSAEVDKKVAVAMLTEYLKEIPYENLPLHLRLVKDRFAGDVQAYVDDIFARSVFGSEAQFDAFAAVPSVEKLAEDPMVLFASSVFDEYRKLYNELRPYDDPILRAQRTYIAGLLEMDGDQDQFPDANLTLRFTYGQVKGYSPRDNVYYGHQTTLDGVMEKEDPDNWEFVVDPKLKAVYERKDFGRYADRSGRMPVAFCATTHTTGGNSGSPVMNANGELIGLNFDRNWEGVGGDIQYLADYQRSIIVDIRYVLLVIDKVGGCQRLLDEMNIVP
SmDPP11, sequence (B4SNQ8 24-715 limits assumed): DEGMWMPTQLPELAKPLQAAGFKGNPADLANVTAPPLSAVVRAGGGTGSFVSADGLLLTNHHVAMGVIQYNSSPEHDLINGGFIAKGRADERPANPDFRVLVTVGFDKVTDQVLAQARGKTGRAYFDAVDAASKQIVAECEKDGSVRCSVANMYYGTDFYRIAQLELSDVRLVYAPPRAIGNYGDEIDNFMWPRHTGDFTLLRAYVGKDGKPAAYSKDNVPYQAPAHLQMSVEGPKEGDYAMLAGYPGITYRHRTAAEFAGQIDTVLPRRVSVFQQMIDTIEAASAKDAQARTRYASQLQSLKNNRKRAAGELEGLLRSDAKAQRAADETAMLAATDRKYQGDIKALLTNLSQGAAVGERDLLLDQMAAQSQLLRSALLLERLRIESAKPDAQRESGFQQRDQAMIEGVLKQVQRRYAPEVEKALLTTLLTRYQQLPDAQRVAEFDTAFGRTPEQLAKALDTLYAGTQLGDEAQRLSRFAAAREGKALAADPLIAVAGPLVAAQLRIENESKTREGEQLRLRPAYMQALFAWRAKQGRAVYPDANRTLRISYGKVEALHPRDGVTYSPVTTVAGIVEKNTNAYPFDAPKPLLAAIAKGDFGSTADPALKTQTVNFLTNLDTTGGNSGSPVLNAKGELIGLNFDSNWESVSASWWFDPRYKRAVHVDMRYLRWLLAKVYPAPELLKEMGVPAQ
PgDPP7, sequence (Q7MWU6 entry or part of it): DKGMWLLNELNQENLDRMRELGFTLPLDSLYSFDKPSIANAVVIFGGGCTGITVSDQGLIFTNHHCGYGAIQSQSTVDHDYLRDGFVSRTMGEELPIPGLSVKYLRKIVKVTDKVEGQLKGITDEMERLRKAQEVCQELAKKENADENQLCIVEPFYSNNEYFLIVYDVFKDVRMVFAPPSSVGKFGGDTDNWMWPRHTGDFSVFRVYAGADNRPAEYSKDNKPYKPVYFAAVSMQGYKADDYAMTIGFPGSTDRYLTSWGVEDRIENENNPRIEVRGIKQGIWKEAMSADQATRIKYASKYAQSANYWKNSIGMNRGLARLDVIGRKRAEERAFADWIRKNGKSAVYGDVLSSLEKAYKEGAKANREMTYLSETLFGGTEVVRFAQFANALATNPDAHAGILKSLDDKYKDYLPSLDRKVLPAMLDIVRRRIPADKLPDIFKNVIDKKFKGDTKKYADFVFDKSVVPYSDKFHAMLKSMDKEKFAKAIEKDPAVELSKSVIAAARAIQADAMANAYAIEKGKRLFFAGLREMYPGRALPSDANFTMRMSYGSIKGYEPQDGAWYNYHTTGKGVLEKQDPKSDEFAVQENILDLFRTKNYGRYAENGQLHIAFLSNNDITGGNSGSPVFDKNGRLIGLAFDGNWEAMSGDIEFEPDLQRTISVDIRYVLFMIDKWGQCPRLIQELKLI

Compound	inhibitory effect against PgDPP11 (in words) (PgDPP11)	inhibitory effect against PgDPP7 (in words) (PgDPP7)	inhibitory effect against SmDPP7 (in words) (SmDPP7)	Ki (PgDPP11; PgDPP11, 100 µM Leu-Asp-MCA)	remaining activity at 100 µM (PgDPP11; PgDPP11)	IC50 (P. gingivalis strain W83)	toxicity toward E. coli (growth) (E. coli strain K12)	inhibitory effect against SmDPP11 (in words) (SmDPP11)	Ki (SmDPP11)	remaining activity at 100 µM (SmDPP11)	further results
NC(=O)c1ccc(SCC(=O)O)c([N+](=O)[O-])c1 [SH-5_3, 2-(4-carbamoyl-2-nitrophenyl)sulfanylacetic acid]	significant but relatively weak inhibitory effect										IC50 (PgDPP11; PgDPP11, dose-response 15.6-1000 μM, 100 µM Leu-Asp-MCA): ~1070 µM
O=C(O)c1cc([N+](=O)[O-])ccc1NCCCc1ccccc1 [NPPB, 5-nitro-2-(3-phenylpropylamino)benzoic acid]	significant inhibitory effects	inactive	inactive	~15 µM and 15 µM	70.3 ± 0.7%	6 µM	not toxic	significant inhibitory effects	84.8 ± 3.1 µM	67.7 ± 0.6%	inhibition of ClC-5 (ClC-5): inhibited; inhibition of BEST-1 (BEST-1): inhibited; inhibition of ClC-ec1 protein (ClC-ec1): not be inhibited; remaining activity at 100 µM (PgDPP7): 159 ± 5%; remaining activity at 100 µM (SmDPP7): 119 ± 0.3%; inhibition at 100 µM (P. gingivalis strain W83; P. gingivalis W83, at 100 μM, read-out: maximal percent inhibition of growth): 99%; inhibition of ClC-7 (ClC-7): inhibited; inhibition of ANO-1 (ANO-1): inhibited; inhibition of ANO-2 (ANO-2): inhibited; inhibition of ClC-2 (ClC-2): inhibited; inhibition of CFTR (CFTR): inhibited; inhibition of ClC-6 (ClC-6): inhibited
NCCNc1ccc([N+](=O)[O-])cc1C(=O)O [SH-5, 2-[(2-aminoethyl)amino]-5-nitrobenzoic acid]	significant inhibitory effects	significant inhibitory effects	significant inhibitory effects	~8.45 µM and 8.45 µM	62.9 ± 0.1%	687 µM	not toxic	significant inhibitory effects	24.9 ± 0.5 µM	48 ± 1.1%	Ki (PgDPP7; PgDPP7, Cheng-Prusoff equation, 100 µM Met-Leu-MCA): 52.2 ± 3.3 µM; remaining activity at 100 µM (PgDPP7; PgDPP7, inhibitor and synthetic substrate (Met-Leu-MCA) 100 µM, 100% = activity without inhibitor): 54.4 ± 0.7%; Ki (SmDPP7; SmDPP7, Cheng-Prusoff equation, 100 µM Met-Leu-MCA): 36.6 ± 1.3 µM; remaining activity at 100 µM (SmDPP7; SmDPP7, inhibitor and synthetic substrate (Met-Leu-MCA) 100 µM, 100% = activity without inhibitor): 72.8 ± 0.7%; inhibition at 100 µM (PgDPP11; compound tested at 100 μM, substrate Leu-Asp-MCA, read-out: inhibitory effect against PgDPP11): > 30%; ligand efficiency (LE) (PgDPP11; roughly calculated as LE = 1.37pIC50/HA): 0.346; inhibition at 1000 µM (P. gingivalis strain W83; P. gingivalis W83, at 1 mM, read-out: maximal percent inhibition of growth): 68%
